Results as given in patent US20260263517A1, “THERAPEUTIC METHODS WITH TARGET-LINKED SMALL MOLECULES AND ANTI-TARGET CAR T CELLS” (Seattle Children's Hospital (dba Seattle Children's …, priority 2022, published 2026).
Entries after “also recorded” stand apart in the source; their conditions may differ.

Experiments:
[1] = cited from earlier work
water solubility of EC17 = format: physicochemical
[2] = EC17 dose finding and CRS assessment in tumor-free mice; format: in vivo, NSG mice
Excerpt: For MDA-MB-231 studies, mice received a high dose (~10 million) of a “clinical facsimile” of E2-CAR-T cells (~39% EGFRt+) with a low differentiation profile (FIG. 9). Two days later, 3 different treatment regimens of EC17 were started at an average tumor size of −293±39 mm^3 (FIG. 12). The EC17 dosing was given once-a-week (SIW) at 500 nmol/kg on Mondays, or as escalating doses of 5, 50 or 100, and 500 or 1000 nmol/kg (i.e., 5/50/500 or 5/100/1000) on Monday, Thursday, and Monday with a 6-day break in-between cycles. Control mice were left untreated (received CAR-T cells but no EC17). For comparison, a cohort of tumor-free littermates also received the same number of CAR-T cells without or with EC17 SIW at 500 nmol/kg.
The initial EC17 dose finding studies were conducted in MDA-MB-231 tumor bearing mice as shown by the schematic diagram of the experimental layout (FIG. 12, panel A). NSG mice without or with MDA-MB-231 tumors (~211±65 mm3) were engrafted on day 0 with −10 million of a “clinical facsimile” batch of E2-CAR-T cells (−39% EGFRt+, 51:49 CD4/CD8). This batch of CAR-T cells consisted of mostly TSCM and TCM phenotypes (see FIG. 9). Two days after the CAR-T cell injection, one cohort of tumor-bearing mice were left untreated while three cohorts were treated with different regimens of EC17, including single injection per week (SIW) at 500 nmol/kg, or as escalating EC17 dose levels of 5/50/500 (Escalation-1) or 5/100/1000 nmol/kg (Escalation-2) given on a Monday/Thursday/Monday schedule with 1-week drug-free intervals. For comparison, two tumor-free cohorts were either untreated or treated with EC17 SIW at 500 nmol/kg.

tumor cell surface FR = conditions: cited from earlier work
THP1-FRβ tumor cells = assay: intravenous THP1-FRβ AML xenograft, E2 CAR-T cells plus EC17 dosing regimens; format: in vivo
Protocol: One objective of this E2-CAR T-cell study was to test EC17/E2 CAR-T cell activity and related toxicity (e.g., sCRS) using multiple dosing regimens starting 3 days after CAR-T infusion. Three different EC17 dosing regimens include (a) once-a-week (SIW) at 500 nmol/kg, (b) “T1W-like” at 5, 50, and 500 nmol/kg on Monday/Wednesday/Friday with 9-day intervals, and (c) “T1W-like” at 5, 100, and 1000 nmol/kg on Monday/Thursday/Monday with 7-day intervals.
THP-1-FRβ AML tumor cells were grown in folate-deficient RPMI 1640 with 5-10% FBS at 37° C. in a 5% CO2 humidified atmosphere. THP-1-FRO tumor cells in serum-free folate-deficient RPMI1640 medium were i.v. injected at 5×10^6 cells per animal.
Anti-FITC E2 scFv-CAR T cells were frozen in a T-cell freezing medium. Upon arrival, vials of frozen CAR-T cells were immediately stored at −80° C. The CAR-T cells were quickly thawed at 37° C., washed twice with CAR-T cell culture medium, and used for animal injection at 6 million viable EGFRt+E2 CAR-T cells (CD4/CD8 at ~1:1) per animal. A small aliquot was taken on the day infusion for flow cytometric analysis of E2-CAR T-cell phenotypes.
EC17 and bis-EDA-FITC dosing solutions were prepared when dosing began by weighing appropriate amounts of each compound, reconstituting in PBS, pH 7.4, sterile filtering the drug solution through a 0.22 pm PVDF syringe filter, and freezing aliquots for each day of dosing at −20° C.
All EC17 doses were given towards the end of day (3-4 PM) to allow potential CRS (cytokine release syndrome) to develop overnight. In the following morning, animals were scored according to a CRS grading system (see below).
Daily body weight measurement on the days after EC17 dose is required. Attention was given to gross animal morphology and behavior. Euthanasia was performed if mice lose a lot of weight in a short duration or when mice are approaching moribund conditions per CRS grading system or neurotoxicity.
Tumor growth, body weight, and overall assessment: Body weight measured 2-3 times/week. On the days immediately after any EC17 dose, body weight measurement was taken daily, and attentions were given to gross animal morphology and behavior.
Whole blood cell analysis: Plasma was removed from predetermined volumes of whole EDTA treated blood and RBCs were lysed with RBC lysis solution. The leukocyte pellets were then resuspended in flow cytometry staining solution (1% bovine serum albumin, 50 mg/mL human IgG (Equitech Bio, cat #SLH56-0001), 0.9% sodium azide in a phosphate buffered saline, pH=7.4) and leukocyte surface marker staining was performed using the following antibodies: anti-human CD45 (clone HI30, eBioscience #47-0459-42 at 1:20 (v/v) dilution), anti-human CD137 (clone 4B4-1, BD Bioscience #564092 at 1:20 (v/v) dilution), anti-human CD8α [clone RPA-T8, BD Bioscience, catalog #557746 at 1:20 (v/v) dilution], anti-human CD4 [clone SK3, eBioscience catalog #46-0047-42 at 1:20 (v/v) dilution], anti-human EGFR [R&D systems, clone Hu1, catalog #FAB9577B @1:10(n/n)], anti-human PD1 [BD Biosciences, clone EH12.1, catalog #562511 @1:20 (v/v)], anti-human LAG3 [BD Biosciences, clone T47-530, catalog #565616 @1:20 (v/v)], anti-human TIM3 [BD Biosciences, clone 7D3, catalog #565558 @1:20 (v/v)], anti-human CD3ε [BD Biosciences, clone SK7, catalog #557832 @1:20 (v/v)]. After leukocyte staining, cells were washed with PBS and resuspended in cold PBS containing 53,000 CountBright™ beads [Invitrogen catalog #C36950] and transferred to flow cytometry collection tubes. Flow cytometry data was collected on the Gallios flow cytometer (Beckman Coulter, Brea, CA). Determination of the concentration of CAR T cells in each blood sample was calculated according to Invitrogen's instructions. CAR T cells were identified as human CD3ε+EGFRt+ events and easily distinguished and counted using the Kaluza™ flow cytometry software. […]

[3] = 6 million CAR-T + EC17 SIW 500 nmol/kg (Cohort 3)

In the case of `NC1=NC2N=CC(CNc3ccc(C(=O)N[C@@H](CCC(=O)NCCNC(=S)Nc4ccc(-c5c6ccc(=O)cc-6oc6cc(O)ccc56)c(C(=O)O)c4)C(=O)O)cc3)=NC2C(=O)N1` (stereo partly shown) [EC17, FA-(γ)-ethylenediamine-FITC], the clearance from circulation ([1]; 0.1 mg/kg intravenous) is given as “rapid clearance from circulation”, the “time EC17 fluorescence signal observed at the site of the tumor” value ([1]; after administration, latest time-point evaluated) is given as “up to 5 hours” and the “time to real-time visualization of malignant lesions” value ([1]; post EC17 administration) is given as ≤ 2 h. The elimination half-life ([1]; single 10-minute intravenous infusion of 0.1 mg/kg, plasma) was 1.45 h, the water solubility (water solubility of EC17) was “good water solubility” and the “CAR-T cell expansion by flow cytometry” value ([2]; tumor-free cohorts) was “no CAR-T cell expansion was detected”. The body weight loss ([2]; tumor-free mice, CAR-T cells + two weekly doses of EC17 at 500 nmol/kg) was “no CRS symptoms (grade 0 out of a 0-5 scale) or body weight loss”, the IFNγ in plasma ([2]; tumor-free, CAR-T cells plus EC17, days 11 and 12) was “low levels of IFNγ were detected” and the “affinity for tumor cell surface FR” value (tumor cell surface FR) was “sub-nanomolar”. For the same molecule, the body weight loss (THP1-FRβ tumor cells; 6 million CAR-T + EC17 M/Th/M dose escalation (Cohort 5)) was “little body weight loss during the first two cycles; also recorded: very mild body weight loss”, the CRS grade (THP1-FRβ tumor cells; [3]) was 1-2 and the body weight loss (THP1-FRβ tumor cells; [3]) was “EC17 dose-dependent body weight loss after each EC17 dose; also recorded: some body weight loss”. The body weight loss (THP1-FRβ tumor cells; 6 million CAR-T + EC17 TIW 5/50/500 nmol/kg on/off (Cohort 4)) was “mildest body weight loss among three treatment groups; also recorded: least body weight loss”, the “circulating THP1-FRβ (GFP+) tumor cells in blood” value (THP1-FRβ tumor cells; E2 CAR T cells + EC17, all three dosing regimens, end of study) was “significant reduction in circulating THP1 cell burden; also recorded: effectively reduced circulating THP11-FRβ tumor cells in the blood” and the non-liver macrometastases (THP1-FRβ tumor cells; EC17 M/Th/M dose escalation at a slow pace per cycle) was “failed to control the non-liver macrometastases”. For the same molecule, the non-liver macrometastases (THP1-FRβ tumor cells; EC17 SIW 500 nmol/kg) was “successfully controlled non-liver macrometastases”, the non-liver macrometastases (THP1-FRβ tumor cells; EC17 TIW 5/50/500 nmol/kg on/off) was “successfully controlled non-liver macrometastases” and the “liver and non-liver (overall) tumor burden” value (THP1-FRβ tumor cells; EC17 TIW 5/50/500 nmol/kg on/off (Cohort 4), Day 39) was “best anti-tumor activity among the three different EC17 dose schedules; also recorded: trended to be the best regimen”. The “co-expression of PD1, LAG3, TIM3 on CAR T cells from liver tumors” value (THP1-FRβ tumor cells; EC17 TIW (cohort 4)) was “fewest number of double and triple positive events”, the “CAR T exhaustion” value (THP1-FRβ tumor cells; all three EC17 dosing regimens) was “very little induction of CAR T exhaustion” and the “severe CRS (grades≥3)” value (THP1-FRβ tumor cells; any EC17 treated cohort) was “no severe CRS (i.e., grades≥3) was observed”. For the same molecule, the “circulating CAR-T cells in blood” value (THP1-FRβ tumor cells; satellite animals, day 31, all EC17 treated cohorts) was “EC17-dependent CAR-T cell expansion and persistence in all treated cohorts”.
